We go through nine molecules from patent US7683057B2, “Kinase inhibitor compounds” (Tyrogenex, Inc., priority 2007, dated 2010).

In one test the test system is AMPK (r). As to the kind of experiment: AMPK Biochemical Assay. The following applies: compared with sunitinib. Set-up: species or system rat. The procedure:
The compounds are assayed for biochemical activity essentially according to the following procedure. In a final reaction volume of 25 μl, AMPK (r) (5-10 mU) is incubated with 32 mM HEPES pH7.4, 0.65 mM DTT, 0.012% Brij-35, 200 μM AMP, 200 μM AMARAASAAALARRR, 10 mM MgAcetate and [(γ-33P-ATP] (specific activity approx. 500 cpm/pmol, concentration as required). The reaction is initiated by the addition of the MgATP mix. After incubation for 40 minutes at room temperature, the reaction is stopped by the addition of 5 μl of a 3% phosphoric acid solution. 10 μl of the reaction is then spotted onto a P30 filtermat and washed three times for 5 minutes in 75 mM phosphoric acid and once in methanol prior to drying and scintillation counting.

Another test has as its system AMPK. The following applies: proteomic study, literature; cited from earlier work.

`Cc1[nH]c(/C=C2\C(=O)Nc3ccc(F)cc32)c(C)c1C(=O)NC1CS(=O)(=O)CC1O` (stereo not drawn) [Example 17, 5-[5-Fluoro-2-oxo-1,2-dihydro-indol-(3Z)-ylidenemethyl]-2,4-dimethyl-1H-pyrrole-3-carboxylic acid (4-hydroxy-1,1-dioxo-tetrahydro-thiophen-3-yl)-amide]: the AMPK inhibitory activities result with AMPK (r) was “significantly less AMPK inhibitory activities than sunitinib”. On to `Cc1[nH]c(/C=C2\C(=O)Nc3ccc(F)cc32)c(C)c1C(=O)NC1CCN(C(=O)CO)CC1` [Example 22, 5-[5-Fluoro-2-oxo-1,2-dihydro-indol-(3Z)-ylidenemethyl]-2,4-dimethyl-1H-pyrrole-3-carboxylic acid [1-(2-hydroxy-acetyl)-piperidin-4-yl]-amide], for which the AMPK inhibitory activities result in the test on AMPK (r) was “significantly less AMPK inhibitory activities than sunitinib”. For the molecule `Cc1[nH]c(/C=C2\C(=O)Nc3ccc(F)cc32)c(C)c1C(=O)N[C@H]1CCNC1=O` [Example 25, 5-[5-Fluoro-2-oxo-1,2-dihydro-indol-(3Z)-ylidenemethyl]-2,4-dimethyl-1H-pyrrole-3-carboxylic acid ((S)-2-oxo-pyrrolidin-3-yl)-amide], the AMPK inhibitory activities result in the test on AMPK (r) is listed as “significantly less AMPK inhibitory activities than sunitinib”. Same read-out and setting: the same measure for `Cc1[nH]c(/C=C2\C(=O)Nc3ccc(F)cc32)c(C)c1C(=O)N[C@H]1CCN(C(=O)C(=O)N(C)C)C1` [Example 29, 5-[5-Fluoro-2-oxo-1,2-dihydro-indol-(3Z)-ylidenemethyl]-2,4-dimethyl-1H-pyrrole-3-carboxylic acid ((S)-1-dimethylaminooxalyl-pyrrolidin-3-yl)-amide]: “significantly less AMPK inhibitory activities than sunitinib”; for `Cc1[nH]c(/C=C2\C(=O)Nc3ccc(F)cc32)c(C)c1C(=O)N[C@H]1CC[C@@H](C(=O)N2CCOCC2)CC1` [Example 30, 5-[5-Fluoro-2-oxo-1,2-dihydro-indol-(3Z)-ylidenemethyl]-2,4-dimethyl-1H-pyrrole-3-carboxylic acid [4-(morpholine-4-carbonyl)-cyclohexyl]-amide]: “significantly less AMPK inhibitory activities than sunitinib”. The same measure, in the same setting: in the case of `Cc1[nH]c(/C=C2\C(=O)Nc3ccc(F)cc32)c(C)c1C(=O)N[C@H]1CC[C@@H](C(=O)N2CCCC2)CC1` [Example 31, 5-[5-Fluoro-2-oxo-1,2-dihydro-indol-(3Z)-ylidenemethyl]-2,4-dimethyl-1H-pyrrole-3-carboxylic acid [4-(pyrrolidine-1-carbonyl)-cyclohexyl]-amide] it was “significantly less AMPK inhibitory activities than sunitinib”; in that of `Cc1[nH]c(/C=C2\C(=O)Nc3ccc(F)cc32)c(C)c1C(=O)N[C@@H]1CCC[C@@H]1C(=O)N1CCCC1` [Example 36, 5-[5-Fluoro-2-oxo-1,2-dihydro-indol-(3Z)-ylidenemethyl]-2,4-dimethyl-1H-pyrrole-3-carboxylic acid [(1R,2S)-2-(pyrrolidine-1-carbonyl)-cyclopentyl]-amide], “significantly less AMPK inhibitory activities than sunitinib”.

`Cc1[nH]c(/C=C2\C(=O)Nc3ccc(F)cc32)c(C)c1C(=O)N[C@@H]1CON(C2CCOCC2)C1=O` [Example 48, 5-[5-Fluoro-2-oxo-1,2-dihydro-indol-(3Z)-ylidenemethyl]-2,4-dimethyl-1H-pyrrole-3-carboxylic acid [(R)-3-oxo-2-(tetrahydro-pyran-4-yl)-isoxazolidin-4-yl]-amide]: the AMPK inhibitory activities entry in the test on AMPK (r) was “significantly less AMPK inhibitory activities than sunitinib”. Turning to `Cc1[nH]c(/C=C2\C(=O)Nc3ccccc32)c(C)c1CCC(=O)O` [SU6668], the “inhibition of AMPK” value in the test on AMPK is recorded as “inhibits”.
